Results published in patent publication US20260159534A1, “NOVEL CRYSTAL FORMS OF PEPTIDE BORIC ACID COMPOUND AND PREPARATION METHODS THEREFOR” (JIANGSU CHUANGTE PHARMACEUTICAL TECHNOLOGY CO., LTD., priority 2021, published 2026).
≈ marks a conversion by molar mass, not a printed value.

How the values were obtained:
Format in all cases: physicochemical
[1] = Solubility test in ultra-pure water; settings: for Solubility property (in words): solubility and kinetic solubility; for Solubility: upper limit 300 μg/mL
From the text: (§1) Four crystal samples produced, namely the eutectic sample and the crystal form A sample of Example 1, the crystal form B sample of Example 2, and the crystal form D sample of Example 3, were subjected to solubility tests and a kinetic solubility determination tests in ultra-pure water, and the solubility results are shown in Tables 1 and 2.

[2] = Kinetic solubility determination in ultra-pure water; settings: upper limit 1000 μg/mL
From the text: as §1

[3] = Stability influence factor tests (high temperature, high humidity, illumination); settings: for Stability during the 10 days of examination (in words): high temperature, high humidity, illumination
Protocol: Four crystal samples produced, namely the eutectic sample and the crystal form A sample of Example 1, the crystal form B sample of Example 2, and the crystal form D sample of Example 3, were each subjected the stability influence factor tests under high temperature (60° C., in the dark), high humidity (relative humidity of 90%[…], in the dark), and illumination (4500 lx±500 lx), and sampling was carried out to on day 0, day 5 day, and day 10 for […] determination, and the results are shown in Table 4 below.

[4] = Hygroscopicity test (dynamic vapor sorption); settings: 25° C.; for Hygroscopicity comparison (in words) / Hygroscopicity: 0-80% RH; for Weight change in the range of 0% RH to 80% RH: dynamic vapor sorption
Protocol: Four crystal samples produced, namely the eutectic sample and the crystal form A sample of Example 1, the crystal form B sample of Example 2, and the crystal form D sample of Example 3, were subjected to hygroscopicity tests at 25° C. under a changing relative humidity of 0-80% RH.

[5] = 5 d, high humidity (relative humidity of 90%±50, in the dark)
[6] = 5 d, high temperature (60° C., in the dark)
[7] = 5 d, illumination (4500 lx±500 lx)
[8] = 10 d, high humidity (relative humidity of 90%±50, in the dark)
[9] = 10 d, high temperature (60° C., in the dark)
[10] = 10 d, illumination (4500 lx±500 lx)

Solubility property (in words) [1] | Solubility [1] [µg/mL] | Kinetic solubility [2] [µg/mL] | Stability results (content) ([3]; 0 h) [%] | Stability results (content) [3, 5] [%] | Stability results (content) [3, 6] [%] | Stability results (content) [3, 7] [%] | Stability results (content) [3, 8] [%] | Stability results (content) [3, 9] [%] | Stability results (content) [3, 10] [%] | Stability during the 10 days of examination (in words) [3] | Weight change in the range of 0% RH to 80% RH [4] | Hygroscopicity [4] | Molecule | Hygroscopicity comparison (in words) [4]
excellent solubility property | 318.09 (≈ 649 µM) | 958.47 | 99.01 | 99.24 | 98.97 | 98.61 | 99.23 | 99.22 | 98.90 | no significant content change | 1.4% |  | CSC[C@H](NC(=O)c1cc(Cl)ccc1Cl)C(=O)N[C@@H](CC(C)C)B1OCCNCCO1 [Crystal form A of Example 1, N—((R)-1-(((R)-1-(1,3,6,2-dioxazaborolan-2-yl)-3-methylbutyl)amino)-3-(methylthio)-1-oxoprop-2-yl)-2,5-dichlorobenzamide] | weaker hygroscopicity compared with the crystal form D
excellent solubility property | 302.80 (≈ 618 µM) | 1078.59 | 99.16 | 98.41 | 98.92 | 99.22 | 99.08 | 99.25 | 99.11 | no significant content change | Less than 0.2% | Nonhygroscopic | CSC[C@H](NC(=O)c1cc(Cl)ccc1Cl)C(=O)N[C@@H](CC(C)C)B1OCCNCCO1 [Crystal form B of Example 2, N—((R)-1-(((R)-1-(1,3,6,2-dioxazaborolan-2-yl)-3-methylbutyl)amino)-3-(methylthio)-1-oxoprop-2-yl)-2,5-dichlorobenzamide] | weaker hygroscopicity compared with the crystal form D
excellent solubility property | 304.21 (≈ 621 µM) | 902.91 | 98.05 | 97.88 | 97.68 | 98.07 | 98.39 | 98.52 | 98.49 | no significant content change | 2.4% | Deliquescent | CSC[C@H](NC(=O)c1cc(Cl)ccc1Cl)C(=O)N[C@@H](CC(C)C)B1OCCNCCO1 [Crystal form D of Example 3, N—((R)-1-(((R)-1-(1,3,6,2-dioxazaborolan-2-yl)-3-methylbutyl)amino)-3-(methylthio)-1-oxoprop-2-yl)-2,5-dichlorobenzamide] | 

Molecule | Solubility property (in words) [1] | Solubility [1] [µg/mL] | Kinetic solubility [2] [µg/mL] | Stability results (content) ([3]; 0 h) [%] | Stability results (content) [3, 5] [%] | Stability results (content) [3, 6] [%] | Stability results (content) [3, 7] [%] | Stability results (content) [3, 8] [%] | Stability results (content) [3, 9] [%] | Stability results (content) [3, 10] [%] | Stability during the 10 days of examination (in words) [3] | Weight change in the range of 0% RH to 80% RH [4] | Hygroscopicity [4] | Hygroscopicity comparison (in words) [4]
N—((R)-1-(((R)-1-(1,3,6,2-dioxazaborolan-2-yl)-3-methylbutyl)amino)-3-(methylthio)-1-oxoprop-2-yl)-2,5-dichlorobenzamide [White eutectic solid of Example 1] | excellent solubility property | 310.12 | 948.16 | 98.10 |  |  |  | 93.18 | 97.49 | 98.06 | unstable | 2.1% | Deliquescent | 
